# Data taken from patent US9133183B2, “Imidazolidinones and analogs exhibiting anti-cancer and anti-proliferative activities” (Deciphera Pharmaceuticals, LLC, priority 2013, dated 2015).
# How the values were obtained:
# [1] = target: unphosphorylated c-FMS kinase (uFMS, Seq. ID no. 1) (Homo sapiens (Human), UniProt P07333); experiment: uFMS kinase assay (ADP production coupled to pyruvate kinase/lactate dehydrogenase); format: biochemical; settings: enzymatic assay, ATP 500 μM; read-out: uFMS
# Outline: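 Unphosphorylated FMS (10 nM) with polyE4Y 1 mg/mL and 500 μM ATP in 90 mM Tris pH 7.5, 10 mM MgCl2, 0.2% octyl-glucoside, 1% DMSO. ADP formation was coupled via pyruvate kinase/LDH to NADH oxidation, followed at A340 for 4 h at 30° C.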
# [2] = target: unphosphorylated c-KIT kinase (uKIT, Seq. ID no. 2) (Homo sapiens (Human), UniProt P10721); experiment: uKit kinase assay (coupled pyruvate kinase/lactate dehydrogenase); format: biochemical; settings: enzymatic assay, ATP 2000 μM
# Outline: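 The read-out was a continuous PK/LDH-coupled decrease in NADH absorbance at 340 nm, monitored at 30 °C over 4 h. IC50 came from % inhibition based on rates at 3–4 h. The GST-tagged unphosphorylated KIT (12 nM) was used with polyE4Y substrate, 2000 μM ATP and 10 mM Mg2+ at pH 7.5, with serially diluted compound.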
# [3] = target: unphosphorylated PDGFRβ kinase (uPDGFRβ, Seq. ID No. 3) (Homo sapiens (Human), UniProt P09619); experiment: Unphosphorylated PDGFRβ kinase assay (coupled pyruvate kinase/lactate dehydrogenase); format: biochemical; settings: enzymatic assay, ATP 500 μM
# Protocol: Unphosphorylated PDGFRβ (uPDGFRβ) Kinase (Seq. ID No. 3) Assay
# Activity of unphosphorylated PDGFRβ kinase (uPDGFRβ, Seq. ID No. 3) was determined by following the production of ADP from the kinase reaction with ATP and poly E4Y as substrates through coupling with the pyruvate kinase/lactate dehydrogenase system (e.g., Schindler et al. Science (2000) 289: 1938-1942). In this assay, the oxidation of NADH (thus the decrease at A340 nm) was continuously monitored spectrophometrically. The reaction mixture (100 μL) contained PDGFRβ (DeCode, 15.7 nM), polyE4Y (2.5 mg/mL), MgCl2 (10 mM), pyruvate kinase (4 units), lactate dehydrogenase (0.7 units), phosphoenol pyruvate (1 mM) and NADH (0.28 mM) and ATP (500 μM) in a 90 mM Tris buffer containing 0.2% octyl-glucoside and 1% DMSO, at pH 7.5. The inhibition reaction was started by mixing serial diluted test compound with the above reaction mixture. The absorption at 340 nm was monitored continuously for 4 h at 30° C. on a Polarstar Optima or Synergy 2 plate reader. The reaction rate was calculated using the 1.5 to 2.5 h time frame. Percent inhibition was obtained by comparison of reaction rate with that of a control (i.e., with no test compound). IC50 values were calculated from a series of percent inhibition values determined at a range of inhibitor concentrations using software routines as implemented in the GraphPad Prism software package.
# uPDGFRβ Kinase Sequence (Residues 557-1106) Used for Screening (Seq ID No. 3)
# [4] = test system: M-NFS-60 cells; experiment: M-NFS-60 cell proliferation assay (resazurin); format: cell-based; settings: 67 h incubation
# Outline: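 Cells kept in medium containing 20 ng/mL mouse recombinant M-CSF. Fluorescence was read at ex 540/em 600 nm, and IC50 was fitted from percent inhibition across a range of inhibitor concentrations.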
# [5] = test system: osteoclast precursors; experiment: Osteoclast tartrate-resistant acid phosphatase assay; format: cell-based; settings: Osteoclast, 7-14 days, RANKL and M-CSF
# unphosphorylated PDGFRβ kinase (uPDGFRβ, Seq. ID No. 3), sequence (P09619 557-1106): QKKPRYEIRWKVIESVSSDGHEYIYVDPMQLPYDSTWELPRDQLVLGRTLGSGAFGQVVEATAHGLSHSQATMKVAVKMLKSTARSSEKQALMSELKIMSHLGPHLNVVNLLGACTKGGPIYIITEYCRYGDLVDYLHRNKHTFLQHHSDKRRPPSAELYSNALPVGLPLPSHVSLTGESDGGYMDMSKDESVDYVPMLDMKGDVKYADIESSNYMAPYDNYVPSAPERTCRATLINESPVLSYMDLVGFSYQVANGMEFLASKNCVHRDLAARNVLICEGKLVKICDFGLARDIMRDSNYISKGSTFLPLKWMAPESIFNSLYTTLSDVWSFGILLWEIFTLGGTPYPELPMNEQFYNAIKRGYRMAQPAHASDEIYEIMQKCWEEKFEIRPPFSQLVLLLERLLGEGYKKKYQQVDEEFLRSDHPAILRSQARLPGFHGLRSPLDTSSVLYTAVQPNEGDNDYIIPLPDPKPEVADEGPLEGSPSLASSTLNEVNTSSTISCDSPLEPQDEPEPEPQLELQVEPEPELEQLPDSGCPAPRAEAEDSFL
# unphosphorylated c-FMS kinase (uFMS, Seq. ID no. 1), sequence (P07333 538-972): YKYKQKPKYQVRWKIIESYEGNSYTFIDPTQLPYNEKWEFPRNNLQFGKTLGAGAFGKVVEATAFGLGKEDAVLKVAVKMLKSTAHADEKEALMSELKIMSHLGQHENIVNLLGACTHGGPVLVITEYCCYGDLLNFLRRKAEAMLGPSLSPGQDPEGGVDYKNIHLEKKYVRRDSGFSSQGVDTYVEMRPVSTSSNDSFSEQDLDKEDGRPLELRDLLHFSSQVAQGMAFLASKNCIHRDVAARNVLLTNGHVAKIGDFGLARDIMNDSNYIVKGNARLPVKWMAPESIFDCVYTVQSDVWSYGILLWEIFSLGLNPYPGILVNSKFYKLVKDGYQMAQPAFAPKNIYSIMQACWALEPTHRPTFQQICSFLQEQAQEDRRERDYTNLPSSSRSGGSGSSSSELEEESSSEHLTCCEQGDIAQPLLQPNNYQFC
# unphosphorylated c-KIT kinase (uKIT, Seq. ID no. 2), sequence (P10721 other isoform, or with tags, fused parts or gaps): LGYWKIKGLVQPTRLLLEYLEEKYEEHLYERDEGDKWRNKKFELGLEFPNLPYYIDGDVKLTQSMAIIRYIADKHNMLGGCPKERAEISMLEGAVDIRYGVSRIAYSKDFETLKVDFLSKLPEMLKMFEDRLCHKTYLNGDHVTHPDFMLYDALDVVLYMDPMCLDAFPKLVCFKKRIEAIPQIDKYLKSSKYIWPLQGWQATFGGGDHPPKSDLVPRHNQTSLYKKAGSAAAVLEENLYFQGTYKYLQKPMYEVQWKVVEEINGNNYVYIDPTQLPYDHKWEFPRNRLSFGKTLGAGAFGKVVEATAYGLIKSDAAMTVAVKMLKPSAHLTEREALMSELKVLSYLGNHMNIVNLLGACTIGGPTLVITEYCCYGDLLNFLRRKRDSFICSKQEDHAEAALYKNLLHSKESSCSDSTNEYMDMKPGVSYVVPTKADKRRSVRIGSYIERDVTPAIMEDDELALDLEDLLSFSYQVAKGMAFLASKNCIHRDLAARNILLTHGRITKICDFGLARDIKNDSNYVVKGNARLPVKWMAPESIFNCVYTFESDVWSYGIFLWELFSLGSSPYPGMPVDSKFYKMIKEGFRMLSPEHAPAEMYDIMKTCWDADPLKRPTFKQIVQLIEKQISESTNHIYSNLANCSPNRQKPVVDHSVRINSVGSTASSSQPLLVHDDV
Compound,IC50 [1] [nM],IC50 [2] [nM],IC50 [3] [nM],IC50 [4] [nM],IC50 [5] [nM]
"CCN1CCN(C(=O)Nc2ccc(Oc3ccnc(-c4ccc(N5CCN(C)CC5)cc4)c3)c(C)n2)C1=O [Example 68, 3-ethyl-N-(6-methyl-5-((2-(4-(4-methylpiperazin-1-yl)phenyl)pyridin-4-yl)oxy)pyridin-2-yl)-2-oxoimidazolidine-1-carboxamide]",< 10,10 to 100,> 1000,10 to 100,< 10
"Cc1cc(NC(=O)N2CCN(C3CC3)C2=O)nc(C)c1Oc1ccnc(-c2cnn(C)c2)c1 [Example 71, 3-cyclopropyl-N-(4,6-dimethyl-5-((2-(1-methyl-1H-pyrazol-4-yl)pyridin-4-yl)oxy)pyridin-2-yl)-2-oxoimidazolidine-1-carboxamide]",< 10,10 to 100,100 to 1000,10 to 100,10 to 100
"CCN1CCN(C(=O)Nc2ccc(Oc3ccnc(C(=O)NC)c3)cn2)C1=O [Example 115, 4-((6-(3-ethyl-2-oxoimidazolidine-1-carboxamido)pyridin-3-yl)oxy)-N-methylpicolinamide]",100 to 1000,100 to 1000,> 1000,> 1000,10 to 100
"Cc1nc(NC(=O)N2CCN(C3CC3)C2=O)ccc1Oc1ccnc(-c2cnn(C)c2)c1 [Example 47, 3-cyclopropyl-N-(6-methyl-5-((2-(1-methyl-1H-pyrazol-4-yl)pyridin-4-yl)oxy)pyridin-2-yl)-2-oxoimidazolidine-1-carboxamide]",< 10,100 to 1000,> 1000,10 to 100,< 10
"Cn1cc(-c2cc(Oc3ccc(NC(=O)N4CCN(C5CCCC5)C4=O)nc3)ccn2)cn1 [Example 30, 3-cyclopentyl-N-(5-((2-(1-methyl-1H-pyrazol-4-yl)pyridin-4-yl)oxy)pyridin-2-yl)-2-oxoimidazolidine-1-carboxamide]",< 10,< 10,100 to 1000,< 10,< 10
"Cc1cc(NC(=O)N2CCN(C3CCCC3)C2=O)nc(C)c1Oc1ccnc(-c2cnn(C)c2)c1 [Example 72, 3-cyclopentyl-N-(4,6-dimethyl-5-((2-(1-methyl-1H-pyrazol-4-yl)pyridin-4-yl)oxy)pyridin-2-yl)-2-oxoimidazolidine-1-carboxamide]",< 10,< 10,10 to 100,< 10,< 10
"CCN1CCN(C(=O)Nc2ccc(Oc3ccnc(-c4cnc(C)s4)c3)c(C)n2)C1=O [Example 70, 3-ethyl-N-(6-methyl-5-((2-(2-methylthiazol-5-yl)pyridin-4-yl)oxy)pyridin-2-yl)-2-oxoimidazolidine-1-carboxamide]",10 to 100,100 to 1000,> 1000,100 to 1000,10 to 100
"Cn1cnc(-c2cc(Oc3ccc(NC(=O)N4CCN(CC(F)(F)F)C4=O)nc3)ccn2)c1 [Example 84, N-(5-((2-(1-methyl-1H-imidazol-4-yl)pyridin-4-yl)oxy)pyridin-2-yl)-2-oxo-3-(2,2,2-trifluoroethyl)imidazolidine-1-carboxamide]",10 to 100,10 to 100,> 1000,10 to 100,10 to 100
"CCN1CCN(C(=O)Nc2ccc(Oc3ccnc(NC(C)=O)c3)c(C)n2)C1=O [Example 122, N-(5-((2-acetamidopyridin-4-yl)oxy)-6-methylpyridin-2-yl)-3-ethyl-2-oxoimidazolidine-1-carboxamide]",10 to 100,> 1000,> 1000,100 to 1000,100 to 1000
"CCN1CCN(C(=O)Nc2ccc(Oc3ccnc(-c4cnn(C)c4)c3)cn2)C1=O [Example 45, 3-ethyl-N-(5-((2-(1-methyl-1H-pyrazol-4-yl)pyridin-4-yl)oxy)pyridin-2-yl)-2-oxoimidazolidine-1-carboxamide]",< 10,10 to 100,> 1000,10 to 100,< 10
"COCCN1CCN(C(=O)Nc2ccc(Oc3ccnc(NC(=O)N(C)C)c3)cn2)C1=O [Example 116, N-(5-((2-(3,3-dimethylureido)pyridin-4-yl)oxy)pyridin-2-yl)-3-(2-methoxyethyl)-2-oxoimidazolidine-1-carboxamide]",10 to 100,10 to 100,> 1000,100 to 1000,10 to 100
"COCCN1CCN(C(=O)Nc2ccc(Oc3ccnc(-c4ccc(C5CCN(C)CC5)cc4)c3)c(C)n2)C1=O [Example 80, 3-(2-methoxyethyl)-N-(6-methyl-5-((2-(4-(1-methylpiperidin-4-yl)phenyl)pyridin-4-yl)oxy)pyridin-2-yl)-2-oxoimidazolidine-1-carboxamide]",< 10,100 to 1000,> 1000,10 to 100,10 to 100
"CN1CCN(C(=O)Nc2ccc(Oc3ccnc(-c4cnn(C)c4)c3)cn2)C1=O [Example 44, 3-methyl-N-(5-((2-(1-methyl-1H-pyrazol-4-yl)pyridin-4-yl)oxy)pyridin-2-yl)-2-oxoimidazolidine-1-carboxamide]",10 to 100,100 to 1000,> 1000,100 to 1000,10 to 100
"COC[C@@H](C)N1CCN(C(=O)Nc2ccc(Oc3ccnc(-c4cnn(C)c4)c3)cn2)C1=O [Example 59, (R)-3-(1-methoxypropan-2-yl)-N-(5-((2-(1-methyl-1H-pyrazol-4-yl)pyridin-4-yl)oxy)pyridin-2-yl)-2-oxoimidazolidine-1-carboxamide]",< 10,10 to 100,100 to 1000,< 10,< 10
"Cc1ccc(-c2cc(Oc3ccc(NC(=O)N4CCN(CC(F)(F)F)C4=O)nc3C)ccn2)cn1 [Example 53, N-(6-methyl-5-((6′-methyl-[2,3′-bipyridin]-4-yl)oxy)pyridin-2-yl)-2-oxo-3-(2,2,2-trifluoroethyl)imidazolidine-1-carboxamide]",10 to 100,> 1000,> 1000,10 to 100,100 to 1000
"Cc1ncc(-c2cc(Oc3ccc(NC(=O)N4CCN(C5CCOCC5)C4=O)nc3)ccn2)s1 [Example 60, N-(5-((2-(2-methylthiazol-5-yl)pyridin-4-yl)oxy)pyridin-2-yl)-2-oxo-3-(tetrahydro-2H-pyran-4-yl)imidazolidine-1-carboxamide]",10 to 100,10 to 100,100 to 1000,10 to 100,10 to 100
"COC(C)(C)CCN1CCN(C(=O)Nc2ccc(Oc3ccnc(-c4cnn(C)c4)c3)cn2)C1=O [Example 24, 3-(3-methoxy-3-methylbutyl)-N-(5-((2-(1-methyl-1H-pyrazol-4-yl)pyridin-4-yl)oxy)pyridin-2-yl)-2-oxoimidazolidine-1-carboxamide]",10 to 100,10 to 100,100 to 1000,10 to 100,10 to 100
"CC(=O)Nc1cc(Oc2ccc(NC(=O)N3CCN(C4CCOCC4)C3=O)nc2C)ccn1 [Example 121, N-(5-((2-acetamidopyridin-4-yl)oxy)-6-methylpyridin-2-yl)-2-oxo-3-(tetrahydro-2H-pyran-4-yl)imidazolidine-1-carboxamide]",10 to 100,100 to 1000,100 to 1000,100 to 1000,100 to 1000
